Source: paper PMC11979685, “Synthesis of Derivatives of the Antibiotic Albicidin: The N‐Terminal Fragment as Key to Control Potency and Resistance Mediated by the Binding Protein AlbA” (Chemistry (Weinheim an Der Bergstrasse, Germany), 2025)
≈ marks a conversion by molar mass, not a printed value. Read-outs that look alike come from different tables or passages of the source.

Experiments:
[1] = Reverse-phase HPLC retention time as estimate of lipophilicity; format: physicochemical; conditions: indicator of lipophilicity
Excerpt: As mentioned before, albicidin 1 is a rather hydrophobic compound and improving its aqueous solubility is desirable. The lipophilicity of drug molecules is commonly characterized by the octanol/water partition coefficient (logP). An alternative approach relies on the correlation between lipophilicity and the retention time (Rt) on a reverse‐phase HPLC column.[31] This approach works well if structurally related compounds are compared as is the case for this SAR study. Rt was thus used to estimate the hydrophilicity of albicidin 1 and its derivatives 2–24 (Table 1).[32]

[2] = test system: panel of gram-positive and gram-negative bacteria; test: MIC against panel of bacteria; format: cell-based; conditions: read-out: MIC vs B. subtilis and M. luteus
Experimental: (§1) After completing the syntheses, the antibacterial activity of A‐variations 4–24 was assessed by determination of MIC values against a basic set of gram‐negative and gram‐positive bacteria (Table 1). The monocyclic derivatives 4–8 featuring a cyano‐, trifluoromethyl‐, methoxy‐ and fluoro‐ substituent in para‐position were very active against the gram–negative E. coli and S. typhimurium strains with MIC values in the same range as 3rd Gen albicidin 3 or ciprofloxacin which is the gold standard for gyrase inhibitors. […] These findings are in agreement with previous studies showing good activities for cyano, trifluoromethyl, methoxy and fluoro substituents in the para‐position of different aromatic rings in the building block A.[12, 13] The activity of the monocyclic derivatives 4–8 against the gram‐positive strains B. subtilis and M. luteus were similar but slightly less pronounced compared to the lead structure 3.
(§2) 1.1 Determination of Minimal Inhibitory Concentrations (MIC)
Minimal inhibitory concentration (MIC) against selected bacterial strains values were determined according to the ninth edition of the Approved Standard M07-A9.[1] 20 μL of cryo stocks of bacterial strains were suspended in 20 mL LB medium (Lysogeny broth: 10 g/L peptone, 5 g/L yeast extract, 5 g/L NaCl). Following incubation overnight at 37°C, 200 rpm, the test inoculum was adjusted by 0.5 McFarland Standard in cation adjusted Mueller-Hinton broth (BBLTM Mueller-Hinton Broth II, Becton, Dickinson and Company, New Jersey, USA) to approximately 1x10^6 CFU mL-1. 95 μL of the bacterial inoculum were applied per well of a 96-well plate. Albicidin and albicidin derivatives 3−24 were dissolved in DMSO (100%) to an initial concentration of 2560 μg/mL and serially diluted in DMSO (100%). Initial solution and serial dilutions of Ciprofloxacin were prepared in 0.1 N HCL, respectively. […] Both microdilution trays and agar plates were incubated at 30−37°C for 16 h and subsequently analyzed for growth inhibition by naked eye. […]

[3] = test system: E. coli; test: MIC against E. coli in presence of 50 % human serum; format: cell-based; conditions: Escherichia coli, read-out: MICEc 50%HS
[4] = test system: Micrococcus luteus DSM 1790; test: MIC determination (broth microdilution); format: cell-based; conditions: DSM1790, read-out: MIC M. luteus
Experimental: as §1, §2
(§3) Minimal inhibitory concentration (MIC) against selected bacterial strains values were determined according to the ninth edition of the Approved Standard M07-A9.[1] 20 μL of cryo stocks of bacterial strains were suspended in 20 mL LB medium (Lysogeny broth: 10 g/L peptone, 5 g/L yeast extract, 5 g/L NaCl). Following incubation overnight at 37°C, 200 rpm, the test inoculum was adjusted by 0.5 McFarland Standard in cation adjusted Mueller-Hinton broth (BBLTM Mueller-Hinton Broth II, Becton, Dickinson and Company, New Jersey, USA) to approximately 1x10^6 CFU mL-1. 95 μL of the bacterial inoculum were applied per well of a 96-well plate. Albicidin and albicidin derivatives 3−24 were dissolved in DMSO (100%) to an initial concentration of 2560 μg/mL and serially diluted in DMSO (100%). Initial solution and serial dilutions of Ciprofloxacin were prepared in 0.1 N HCL, respectively. 5 μL of each antibiotic dilution were added to the microdilution tray to reach albicidin concentrations of 128 μg/mL to 0.016 μg/mL per well. One row of each well plate served as a growth control without antibiotic substances and another row of the microdilution tray served as sterility control (only MHB II - media). The antimicrobial effect of the solvent (DMSO) was tested by adding 5 μL DMSO to several wells. Purity check and cell titer control were performed according to International S tandard M07-A9 on Mueller-Hinton II Agar (Mueller Hinton II Broth, 15 g/L agar-agar). Both microdilution trays and agar plates were incubated at 30−37°C for 16 h and subsequently analyzed for growth inhibition by naked eye. The following primary panel of microorganisms were purchased from German Collection of Microorganisms and Cell Cultures (DSMZ):
(§4) Escherichia coli DSM 1116
(§5) Micrococcus luteus DSM 1790
(§6) Mycobacterium phlei DSM 750
(§7) Salmonella typhimurium TA100 was kindly provided by Prof. Dr. Vera Meyer (Technische Universität Berlin). […]
(§8) was purchased as part of the single gene knockout library of E. coli K12 BW25113 (Keio collection) from Horizon Discovery group plc (Cambridge, UK).

[5] = test system: Salmonella typhimurium TA100; test: MIC determination (broth microdilution); format: cell-based; conditions: Salmonella enterica, read-out: MIC S. typh.
Experimental: as §1, §2, §3, §4, §5, §6, §7, §8

[6] = test system: Bacillus subtilis DSM 10; test: MIC determination (broth microdilution); format: cell-based; conditions: DSM10, read-out: MIC B. sub.
Experimental: as §1, §2, §3, §4, §5, §6, §7, §8

[7] = test system: E. coli BW25113; test: MIC determination (broth microdilution); format: cell-based
Experimental: as §1, §2, §3, §4, §5, §6, §7, §8

[8] = test system: Mycobacterium phlei DSM 750; test: MIC determination (broth microdilution); format: cell-based
Experimental: as §1, §2, §3, §4, §5, §6, §7, §8

[9] = test system: E. coli DSM1116; test: MIC determination (broth microdilution); format: cell-based
Experimental: as §1, §2, §3, §4, §5, §6, §7, §8

[10] = gram-positive bacteria B. subtilis and M. luteus
[11] = E. coli in presence of 50 % human serum
[12] = Escherichia coli, BW25113; read-out: MIC E. coli BW25113
[13] = Mycolicibacterium phlei, DSM750; read-out: MIC M. phlei
[14] = Escherichia coli, DSM1116; read-out: MIC E. coli DSM1116
[15] = Escherichia coli, BW25113, read-out: MIC E. coli BW25113
[16] = Escherichia coli, DSM1116, read-out: MIC E. coli DSM1116

| Structure (SMILES) | Rt (retention time) [1] [min] | MIC [2, 10] [µg/mL] | MIC [3, 11] [µg/mL] | MIC [4] [µg/mL] | MIC [5] [µg/mL] | MIC [6] [µg/mL] | MIC [7, 12] [µg/mL] | MIC [8, 13] [µg/mL] | MIC [9, 14] [µg/mL] | MIC [7, 15] [µg/mL] | MIC [2] [µg/mL] | MIC [3] [µg/mL] | MIC ([8]; Mycolicibacterium phlei, DSM750, read-out: MIC M. phlei) [µg/mL] | MIC [9, 16] [µg/mL] |
| --- | --- | --- | --- | --- | --- | --- | --- | --- | --- | --- | --- | --- | --- | --- |
| COc1c(NC(=O)c2ccc(NC(=O)c3ccc(NC(=O)[C@H](Cc4c[nH]nn4)NC(=O)c4ccc(NC(=O)c5ccc6ccccc6n5)cc4)cn3)c(OC)c2O)ccc(C(=O)O)c1O [compound 11] | 9.49 | ≤ 0.016 | 2 | ≤ 0.016 | ≤ 0.016 | ≤ 0.016 | ≤ 0.016 | 0.5 (≈ 0.568 µM) | ≤ 0.016 |  |  |  |  |  |
| CCn1cc(C(=O)Nc2ccc(C(=O)N[C@@H](Cc3c[nH]nn3)C(=O)Nc3ccc(C(=O)Nc4ccc(C(=O)Nc5ccc(C(=O)O)c(O)c5OC)c(O)c4OC)nc3)cc2)c(=O)c2ccc(C)nc21 [compound 18] | 9.24 |  | 8 | 0.031 (≈ 0.033 µM) | ≤ 0.016 | 0.063 (≈ 0.067 µM) | 0.063 (≈ 0.067 µM) | ≥ 8 | 0.031 (≈ 0.033 µM) |  |  |  |  |  |
| COc1c(NC(=O)c2ccc(NC(=O)c3ccc(NC(=O)[C@H](Cc4c[nH]nn4)NC(=O)c4ccc(NC(=O)c5ccc6ncsc6c5)cc4)cn3)c(OC)c2O)ccc(C(=O)O)c1O [compound 22] | 7.65 |  | 0.5 | 0.125 (≈ 0.141 µM) | ≤ 0.016 | 0.125 (≈ 0.141 µM) | ≤ 0.016 | 2 (≈ 2.26 µM) | ≤ 0.016 |  |  |  |  |  |
| COc1c(NC(=O)c2ccc(NC(=O)c3ccc(NC(=O)[C@H](Cc4c[nH]nn4)NC(=O)c4ccc(NC(=O)c5ccc(C#N)cc5)cc4)cn3)c(OC)c2O)ccc(C(=O)O)c1O [compound 4] | 8.20 |  | 1 | 0.125 (≈ 0.146 µM) | ≤ 0.016 | 0.125 (≈ 0.146 µM) | ≤ 0.016 | 4 (≈ 4.68 µM) | 0.031 (≈ 0.0363 µM) |  |  |  |  |  |
| COc1c(NC(=O)c2ccc(NC(=O)c3ccc(NC(=O)[C@H](Cc4c[nH]nn4)NC(=O)c4ccc(NC(=O)c5cnc6ccccc6c5)cc4)cn3)c(OC)c2O)ccc(C(=O)O)c1O [compound 13] | 8.07 | 0.125 (≈ 0.142 µM) |  | 0.125 (≈ 0.142 µM) |  | 0.125 (≈ 0.142 µM) | ≤ 0.016 | 1 (≈ 1.14 µM) | 0.031 (≈ 0.0352 µM) |  |  |  |  |  |
| CCn1cc(C(=O)Nc2ccc(C(=O)N[C@@H](Cc3c[nH]nn3)C(=O)Nc3ccc(C(=O)Nc4ccc(C(=O)Nc5ccc(C(=O)O)c(O)c5OC)c(O)c4OC)nc3)cc2)c(=O)c2cc3c(cc21)OCO3 [compound 19] | 8.45 |  |  | 0.016 (≈ 0.0165 µM) |  | 0.031 (≈ 0.032 µM) | ≤ 0.016 | 0.25 (≈ 0.258 µM) | 0.016 (≈ 0.0165 µM) |  |  |  |  |  |
| COc1c(NC(=O)c2ccc(NC(=O)c3ccc(NC(=O)[C@H](Cc4c[nH]nn4)NC(=O)c4ccc(NC(=O)c5c[nH]c6ccccc6c5=O)cc4)cn3)c(OC)c2O)ccc(C(=O)O)c1O [compound 17] | 7.98 |  |  | ≤ 0.016 |  | ≤ 0.016 | 0.063 (≈ 0.0702 µM) | 8 (≈ 8.92 µM) | 0.031 (≈ 0.0346 µM) |  |  |  |  |  |
| COc1c(NC(=O)c2ccc(NC(=O)c3ccc(NC(=O)[C@H](Cc4c[nH]nn4)NC(=O)c4ccc(NC(=O)c5ccc6ncccc6c5)cc4)cn3)c(OC)c2O)ccc(C(=O)O)c1O [compound 14] | 7.67 |  | 4 | 0.125 (≈ 0.142 µM) | ≤ 0.016 | 0.25 (≈ 0.284 µM) | ≤ 0.016 | 4 (≈ 4.54 µM) | 0.016 (≈ 0.0182 µM) |  |  |  |  |  |
| COc1c(NC(=O)c2ccc(NC(=O)c3ccc(NC(=O)[C@H](Cc4c[nH]nn4)NC(=O)c4ccc(NC(=O)c5cc6cc(O)ccc6[nH]5)cc4)cn3)c(OC)c2O)ccc(C(=O)O)c1O [compound 21] | 7.50 |  | ≥ 8 | 1 (≈ 1.13 µM) | 0.125 (≈ 0.141 µM) | 1 (≈ 1.13 µM) |  | 4 (≈ 4.52 µM) | 0.063 (≈ 0.0712 µM) | 0.125 (≈ 0.141 µM) |  |  |  |  |
| COc1c(NC(=O)c2ccc(NC(=O)c3ccc(NC(=O)[C@H](Cc4c[nH]nn4)NC(=O)c4ccc(NC(=O)c5cc6ccccc6cn5)cc4)cn3)c(OC)c2O)ccc(C(=O)O)c1O [compound 12] | 8.74 |  |  | 0.063 (≈ 0.0715 µM) | ≤ 0.016 | 0.063 (≈ 0.0715 µM) |  |  |  | ≤ 0.016 | 0.063 (≈ 0.0715 µM) | 1 | 1 (≈ 1.14 µM) | ≤ 0.016 |
| COc1c(NC(=O)c2ccc(NC(=O)c3ccc(NC(=O)[C@H](Cc4c[nH]nn4)NC(=O)c4ccc(NC(=O)[C@@H](C)Oc5ccc(O)cc5)cc4)cn3)c(OC)c2O)ccc(C(=O)O)c1O [compound 9] | 7.78 |  | ≥ 8 | 2 (≈ 2.25 µM) | 0.063 (≈ 0.0708 µM) | 1 (≈ 1.12 µM) | 0.063 (≈ 0.0708 µM) |  | 0.063 (≈ 0.0708 µM) |  |  |  |  |  |
| COc1c(NC(=O)c2ccc(NC(=O)c3ccc(NC(=O)[C@H](Cc4c[nH]nn4)NC(=O)c4ccc(NC(=O)c5ccc6nc(C)ccc6c5)cc4)cn3)c(OC)c2O)ccc(C(=O)O)c1O [compound 16] | 6.94 |  |  |  |  |  |  |  |  |  |  |  |  |  |
| COc1c(NC(=O)c2ccc(NC(=O)c3ccc(NC(=O)[C@H](Cc4c[nH]nn4)NC(=O)c4ccc(NC(=O)c5cc(=O)c6cc(F)ccc6o5)cc4)cn3)c(OC)c2O)ccc(C(=O)O)c1O [compound 20] | 8.60 |  | 8 | 0.063 (≈ 0.0688 µM) | ≤ 0.016 | 0.125 (≈ 0.136 µM) | ≤ 0.016 | 2 (≈ 2.18 µM) | ≤ 0.016 |  |  |  |  |  |
| COc1c(NC(=O)c2ccc(NC(=O)c3ccc(NC(=O)[C@H](Cc4c[nH]nn4)NC(=O)c4ccc(NC(=O)c5ccc6nc[nH]c6c5)cc4)cn3)c(OC)c2O)ccc(C(=O)O)c1O [compound 23] | 6.69 |  | ≥ 8 | 2 (≈ 2.3 µM) | 0.125 (≈ 0.144 µM) | 2 (≈ 2.3 µM) |  | 8 (≈ 9.2 µM) |  | 0.125 (≈ 0.144 µM) |  |  |  | 0.125 (≈ 0.144 µM) |
| COc1c(NC(=O)c2ccc(NC(=O)c3ccc(NC(=O)[C@H](Cc4c[nH]nn4)NC(=O)c4ccc(NC(=O)c5ccc6nn[nH]c6c5)cc4)cn3)c(OC)c2O)ccc(C(=O)O)c1O [compound 24] | 7.16 |  | 2 | 0.5 (≈ 0.574 µM) | 0.031 (≈ 0.0356 µM) | 0.5 (≈ 0.574 µM) | 0.125 (≈ 0.144 µM) | 8 (≈ 9.19 µM) | 0.125 (≈ 0.144 µM) |  |  |  |  |  |
